Experimental data: a melting point compilation (Tetko et al.; mined from patent text by program, amines drawn as free bases though some values may be those of a salt)

With NC(=O)Cc1cc(Oc2ccc3c(ccn3C(=O)Nc3ccc(CN4CCCC4)c(C(F)(F)F)c3)c2)ncn1 the melting point was 123 to 124 °C.
With CN1CCN(C(=O)Nc2ccc3c(c2Cl)C(c2ccccc2F)=NCC(=O)N3C)CC1 the melting point was 154 °C.
For Cc1nc(-n2ccc(CCc3ccccc3)cc2=O)sc1C(=O)NCc1ccccc1, the melting point was 149 to 150 °C.
O=c1c2ccccc2ncn1CCN1CCC(Nc2nc3ccccc3n2Cc2ccc(F)cc2)CC1 showed a melting point of 191 °C.
Compound CN1C(=O)C(Cc2ccccc2)N(C)C(=O)C1=Cc1c(C#N)ccc(F)c1F (stereo unspecified) has a melting point of 175 °C.
Work on CC(C)n1nc(C(=O)NCC2CCN(CC(=O)Nc3ccc(OCc4ccccc4)cc3)CC2)c2ccccc21 yielded a melting point of 113 to 115 °C.
Compound CNc1cc(C(F)(F)F)no1 has a melting point of 48.5 to 50 °C.
Cc1nn(C)c2nc(-c3ccccc3)cc(N(C)C)c12 showed a melting point of 90 to 91 °C.
Cc1c(C(=O)OC(C)(C)C)nn(-c2ccc(Cl)cc2Cl)c1-c1ccc(Cl)cc1 gave a melting point of 112 °C.
Work on CC(=O)Nc1cc(N(C)C)ccc1C(=O)c1ccccc1C(=O)O yielded a melting point of 174 to 181 °C.
Nc1ccc(Cl)c(Cl)c1Br gave a melting point of 78 to 80 °C.
With CC/C=C/c1nc(Cl)c(C=O)n1Cc1ccc(-c2ccccc2C(=O)O)cc1 the melting point was 164 to 166 °C.
Work on COC(C)(C)C(=O)C(Oc1ccc(I)cc1)n1cncn1 (stereo unspecified) yielded a melting point of 81.5 to 82.5 °C.
With C=Cc1c(F)c(F)cc(C(=O)O)c1F the melting point was 108 to 110 °C.
With CCOC(=O)c1cn(CCF)c2nc(SCC)c(F)cc2c1=O the melting point was 271 to 273 °C.
CCOc1ccc(CN2C(=O)SC(S(=O)(=O)c3ccc(C)cc3)C2=O)c(OCC)c1 (stereo unspecified) showed a melting point of 121 to 123 °C.
Work on CCOCCCn1ccc(=O)c(OC(=O)NCC(=O)OCC)c1C yielded a melting point of 84 to 85 °C.
COc1ccc2c(=O)n(S(=O)(=O)c3ccc(Cl)cc3)c(=O)[nH]c2c1 gave a melting point of 205 to 206 °C.
COC(=O)CCCCCCC1=CCC(O)C1=O (stereo unspecified) gave a melting point of 62.5 to 63.5 °C.
For CCCCCCCCOc1ccc(C(=O)c2ccccc2)c(O)c1Cc1cc(C)cc(-n2nc3ccccc3n2)c1O, the melting point was 124 to 126 °C.
CCCCOc1nc(N)c2[nH]c(=O)n(CCCN(CCCN3CCOCC3)Cc3cccc(CC(=O)OC)c3)c2n1 gave a melting point of 153 °C.
With COCCOCCOCCOCCNS(=O)(=O)c1ccc(NC=C2C(=O)Nc3ccc4ncsc4c32)cc1 the melting point was 158 to 159 °C.
Cc1nc2nc(SCc3ccccc3)nn2c(O)c1Cl showed a melting point of 258 to 260 °C.
In the case of O=C1c2c(F)c(F)c(F)c(F)c2C(=O)N1c1ccc(F)cc1F, the melting point is reported as 145 to 146 °C.
In the case of O=C(O)COc1cccc2c1CCC(n1nc(-c3c(-c4ccccc4)nn4ccccc34)ccc1=O)C2=O (stereo unspecified), the melting point is reported as 225 to 227 °C.
For N#CCN1CCC(c2n[nH]c3cc(F)ccc23)CC1, the melting point was 149 to 151 °C.
Work on CC(C)OC(=O)Nc1cccc(-c2ccnc3c(C(=O)c4ccco4)cnn23)c1 yielded a melting point of 140 to 143 °C.
In the case of NCC1Cc2cc(C(F)(F)F)cc(-c3cccc(F)c3)c2O1 (stereo unspecified), the melting point is reported as > 250 °C.
With CSc1nccc(Oc2ccc(NC(=O)c3cc(F)cc(N4CCCCC4)c3)c3ccccc23)n1 the melting point was 130 to 132 °C.
For CC(=O)OC1C(OC(=O)c2ccccc2)C=C(C)C(=O)CC1(C)C (stereo unspecified), the melting point was 94 to 95 °C.
Compound COc1cc2ncnc(N3CCN(C(=S)NCc4ccc(OC(F)(F)F)cc4)CC3)c2cc1OC has a melting point of 131 to 132 °C.
NC(=O)c1ccccc1C(=O)NCCCN1CCC(c2noc3cc(F)ccc23)CC1 gave a melting point of 129 to 130 °C.
In the case of CS(=O)(=O)Nc1cc(C(c2cc(F)ccc2F)S(=O)(=O)c2ccc(F)c(F)c2)c(Cl)cn1 (stereo unspecified), the melting point is reported as 118 to 120 °C.
COc1cc2c(Nc3ccc(Sc4nccn4C)c(Cl)c3)c(C#N)cnc2cc1N1CCC(N2CCOCC2)CC1 gave a melting point of 219 to 221 °C.
Compound CCCCOc1cc(/C=C(\OCC)C(=O)O)ccc1OCCc1ccc(OS(C)(=O)=O)c(OC)c1 has a melting point of 97 °C.
Compound FC(F)(F)Oc1ccc2nc(-c3ccccc3)[nH]c2c1 has a melting point of 208 to 210 °C.
Cn1cc(C2=C(c3ccccc3OCC3COC(C)(C)O3)C(=O)NC2=O)c2ccccc21 (racemic) showed a melting point of 221 °C.
Compound Cc1ccc(-c2nc3c([nH]c(=O)c4ccccc43)s2)cc1 has a melting point of 314 to 316 °C.
With COc1ccc(C=CC(=O)c2cccc(O)c2)cc1 the melting point was 93 to 94 °C.
Work on CCC1(CC(=O)O)OCCc2nc(-c3ccc(Cl)cc3)sc21 (stereo unspecified) yielded a melting point of 190 to 191 °C.
In the case of NP(=O)(O)CCc1ccccc1, the melting point is reported as 226 °C.
Work on CC(C)(C(=O)c1ccccc1)C(N)=S yielded a melting point of 172 to 175 °C.
Work on CCn1cc(C(=O)O)c(=O)c2cnc(N3CCN(Cc4ccc(N)cc4)CC3)nc21 yielded a melting point of 198 to 201 °C.
CCOC(=O)c1ccc(Sc2cc3c(cc2C)C(C)(C)CCC3(C)C)cc1O gave a melting point of 74 to 75 °C.
In the case of CC(C)(C)OC(=O)N1CCC2(CC1)CC(c1ccc(Cl)cc1)=NO2, the melting point is reported as 138 to 141 °C.
CCCCCCCCCCCCCCCCCC(=O)OC1CC(C)(C)N(OC(C)=O)C(CC)(CC)C1 (stereo unspecified) showed a melting point of 41 to 44 °C.
CCCCCCc1sc(C(N)=O)c2c1-c1c(cnn1C)CC2 gave a melting point of 100 to 101 °C.
Cc1nc(NC(=O)C2CC2)sc1C(=O)NCc1ccccc1 gave a melting point of 241 to 243 °C.
NNc1cc(=O)[nH]c(N)n1 showed a melting point of 314 to 315 °C.
Work on O=C(O)c1cn(Cc2ccccc2)c2nc(N3CCNCC3)ncc2c1=O yielded a melting point of 250 to 253 °C.
In the case of O=C(O)c1cc2cc(F)c(F)cc2[nH]1, the melting point is reported as 279 to 280 °C.
For N#CC1CN1C(=O)c1ccccn1 (stereo unspecified), the melting point was 124 to 127 °C.
With CCOC(=O)Nc1csc2cc(O)ccc12 the melting point was 159 to 160 °C.
In the case of NC1(C(=O)O)C=CC(Br)=C(F)C1 (stereo unspecified), the melting point is reported as 180 °C.
Work on NC(=O)C1CCc2ccccc2O1 (stereo unspecified) yielded a melting point of 125 to 127 °C.
Compound COc1c(C(C)=O)c(OC2SCC(O)C(O)C2O)c(OC)c2occc12 (stereo unspecified) has a melting point of 207 to 209 °C.
COC(=O)c1cccc(OCC(=O)NN=C2C(=O)Nc3ccc(I)cc32)c1 gave a melting point of 237 °C.
Work on COc1cccc(OC)c1C(N)=O yielded a melting point of 208 to 209 °C.
With O=C(c1ccc(Cl)c([N+](=O)[O-])c1)c1cnc(NC2CCCCC2)s1 the melting point was 194 to 198 °C.
Oc1cccc(-c2cc(-c3ccc(-c4ccccc4)cc3)cc(-c3ccc4ccccc4c3)n2)c1 showed a melting point of 174 to 175 °C.
CC/C=C/CNc1cccc(-c2ccnc3c(C(=O)c4cccs4)cnn23)c1 showed a melting point of 72 to 75 °C.
With CC(=O)NC[C@H]1CN(c2ccc(N3CCN(C(=O)CCC(=O)c4ccc(C(N)=O)cc4)CC3)c(F)c2)C(=O)O1 the melting point was > 250 °C.
Work on CCCCCCCCCCCCNC(=O)c1cc(Br)c(OCCNC(N)=O)c(-c2cccc(C(F)(F)F)c2)c1 yielded a melting point of 122 to 125 °C.
For COC(=O)CCCc1cc2nc(Cl)ccc2n1S(=O)(=O)c1c(F)cccc1F, the melting point was 107 to 109 °C.
Compound c1ccc(Cc2n[nH]c(NCCCCOc3cccc(CN4CCCCC4)c3)n2)cc1 has a melting point of 145 to 146 °C.
CN(C)CC#CC1=Cc2ccccc2Sc2ccc(Cl)cc21 showed a melting point of 118 to 120 °C.
With CC(C)(C)OC(=O)NCCNC(=O)c1nc(Cl)sc1-c1ccccc1 the melting point was 114 to 116 °C.
Work on O=C(c1ccccc1)c1cc(Oc2cc(Cl)cc(Cl)c2)c2c(=O)c3ccccc3sc2c1 yielded a melting point of 160 to 163 °C.
CCOC(=O)c1ccc(OCC(O)CC)cc1 (stereo unspecified) showed a melting point of 52 to 52.5 °C.
CCCCCC/C=C/CCCCCCCCCC(=O)Nc1nc(CC(=O)O)cs1 showed a melting point of 116 to 117 °C.
Work on CN1CC2c3ccc(C=O)n3Cc3ccccc3N2C(=O)C1=O (stereo unspecified) yielded a melting point of 300 to 302 °C.
